Consider 13 sequences from US7419669B2, “Peptide epitopes common to antigens of the same multigene family” (Institut Gustave Roussy, priority 2002, dated 2008).

For one experiment, the target named is T1, HLA-A*0201 (Homo sapiens, UniProt P04439, D140Y/D185E/D98H/E176V/E277Q/G131W/G231S/I119V/I121R/I166T/I218V/L300P/L318F/N151K/N90K/P208A/P217A/Q86G/Q94H/R138H/R169H/T345S).
T1 construct: prevent the expression at their surface of newly synthesized HLA-A*0201 molecules; endogenous in cells; host or cells: human T2 cells (TAP-deficient)
Description: Relative affinity (RA) of peptides for HLA-A*0201 on T2 cells, flow cytometry with BB7.2. As to conditions: for affinity for HLA-A*0201 (in words): low affinity = RA>5 and DC50<2 hours; for RA (relative affinity for HLA-A*0201): ratio of peptide concentration to reference peptide (HIVpol 589) concentration inducing 20% of fluorescence obtained with 100 μM reference, T2 cells, lower RA = stronger binding. In kind it is binding. As for the experimental part:
The affinity of the selected peptides for HLA-A*0201 was defined by two parameters: the relative affinity (RA); which reflects the ability of the peptides to bind to HLA-A*0201, and the rate of dissociation of the HLA-A*0201/peptide complexes (DC50), which reflects their stability. The peptides with high affinity (RA<5 and DC50>2 hours) are potentially immunogenic, unlike the peptides with low affinity (RA>5 and DC50<2 hours).
Human T2 cells (FIRAT et al., Eur. J. Immunol., 29, 3112, 1999) (3×10^5 cells/ml), which are deficient in TAP transporters, are incubated at 37° C. for 16 hours with various concentrations (100 μM, 10 μM, 1 μM, 0.1 μM) of each test peptide in serum-free RPMI 1640 medium supplemented with 100 ng/ml of human β2-microglobulin. Next, they are washed twice and labeled with the monoclonal antibody BB7.2 (PARHAM et al., Hum. Immunol., 3, 4, 277-299, 1981) which is specific for the HLA-A*0201 molecule, and then with a goat anti-mouse Ig antibody coupled to fluorescein isothiocyanate (FITC).
The cells are then analyzed by flow cytometry. For each concentration of peptide, the specific HLA-A*0201 fluorescence is calculated as a percentage of the fluorescence obtained with 100 μM of a reference peptide (HIVpol 589; […] (SEQ ID No: 1)). The relative affinity (RA) is defined as the ratio of the concentration of each peptide that induces 20% of the fluorescence obtained with 100 μM of the reference peptide, to the concentration of the reference peptide that induces 20% of the fluorescence obtained with 100 μM of said reference peptide. The lower the relative affinity, the stronger the binding of the peptide to HLA-A*0201. The mean RA for each peptide is determined from at least three independent experiments. In all the experiments, 20% of the maximum fluorescence was obtained for 1 to 3 μM of the reference peptide.
The relative affinity (RA) of the selected variant peptides for HLA-A*0201 was measured as described in example 1.
Background: Flow cytometry measures light scatter and fluorescence of single cells or particles in a stream.

A further experiment concerns RMAS-HHD target cells. Nature of the experiment: Cytotoxicity assay with CTL lines 1R5 and 2R5 (HHD mice immunized with p911Y1V9) on peptide-loaded RMAS-HHD target cells. As to conditions: for CTL response (specific lysis) to RMAS-HHD cells loaded with the peptide: CTL lines 1R5 and 2R5 induced with p911Y1V9, 10 μM peptide. In kind it is cell-based, murine. The procedure: Two CTL lines, called 1R5 and 2R5, were established from the spleen cells of HHD mice immunized with the variant peptide p911Y1V9, according to the same protocol as that described in example 1.
Cytotoxicity assays were carried out as described in example 2. For this, RMAS-HHD target cells loaded with 10 μM of the test peptides (variant or native peptides) were incubated in the presence of cells of the two CTL lines 1R5 and 2R5.
The percentage specific lysis values observed in the presence of the 1R5 (□) and 2R5 (▪) lines and for the various peptides tested are given in FIG. 5.

In a further experiment the test system is RMAS-HHD cells. Description: Intracellular IFNγ production of CTL line 1R5 with peptide-loaded RMAS-HHD cells. The format is cell-based, murine. As to conditions: for response of CD8+ cells of CTL line 1R5 to RMAS-HHD cells loaded with the peptide: intracellular IFNγ production. As for the experimental part: The response of the cells of the CTL line 1R5 with respect to the RMAS-HHD cells loaded with the various peptides was also evaluated by assaying the intracellular IFNγ production.
For this, the cells of the CTL line 1R5 are incubated in the presence of RMAS-HHD cells loaded with the variant peptide p911Y1V9, the native peptides HER1 911, HER2,3 911 or HER4 911, or an irrelevant peptide, and in the presence of 20 μg/ml of Brefeldine-A (Sigma). After 6 hours, the cells are washed, labeled with an anti-CD8 antibody conjugated to r-phycoerythrin, and incubated in PBS for 25 min at 4° C. They are then again washed, before being fixed with a 4% paraformaldehyde solution. The cells are then permeabilized with saponin (Sigma) at 0.2% in PBS, and labeled with an anti-IFNγ monoclonal antibody conjugated to allophycocyanin (Pharmingen).
(§1) The cells are then analyzed by flow cytometry (FACSCalibur™ (Becton Dickinson) and CellQuest™ software).

The test system of a further experiment is HHD transgenic mice. Nature of the experiment: Induction of specific CTLs in HHD transgenic mice by immunization with variant MAGE-A peptides; 51Cr cytotoxicity on peptide-loaded RMAS-HHD targets. As to conditions: for recognition of RMAS-HHD targets loaded with the native peptide by CTLs induced with the corresponding variant: native peptide loaded on targets. The format is in vivo. The procedure:
The immunogenicity of the variant peptides p174Y1V10, p262L2 and p248V9 was evaluated by generation of CTLs on HHD transgenic mice (PASCOLO et al., J. Exp. Med., 185, 2043, 1997). These mice are β2m−/−, D^b−/− and express an HLA-A*0201 single chain made up of the α1 and α2 domains of HLA-A*0201 and the α3 and intracellular domains of D^b, linked via its N-terminal to the C-terminal of human β2-microglobulin, via a peptide of 15 amino acids.
The HHD mice are given a subcutaneous injection at the base of the tail with 100 μg of each variant peptide to be tested, emulsified in Freund's incomplete adjuvant, in the presence of 140 μg of a T-helper epitope derived from the HBV “core” antigen (128-140, sequence […]).
After 11 days, spleen cells taken from the mice (5×10^7 cells in 10 ml) are stimulated in vitro with the test peptide (10 μM). On the 6th day of culture, the populations which respond are tested in order to determine a specific cytotoxicity. The cells which respond are restimulated in vitro at one-week intervals with 2×10^7 irradiated (3000 rads) HHD spleen cells and 1 to 0.1 μM of peptide in the presence of 50 IU/ml of recombinant IL2 (Proleukin, Chiron Corp).
Cytotoxicity assays are carried out 6 days after the final stimulation.
RMAS-HHD cells are used as targets to study the cytotoxicity. The cells are obtained by transfection of murine RMAS cells with the HHD construct as described by PASCOLO et al. (J. Exp. Med., 185, 2043, 1997).
These target cells are labeled with 100 μCi of ^51Cr for 90 minutes, and then washed three times and plated out in round-bottomed 96-well plates (3×10^3 cells/well in 100 μl of RPMI 1640+3% of fetal calf serum). They are loaded with various concentrations of test peptide (variant, native peptide, or irrelevant control peptide), at 37° C. for 90 minutes.
Next, 100 μl of the effector cells (effector cell/target cell ratio=40/1) are added to the wells and the plates are incubated at 37° C. for 4 hours. After incubation, 100 μl of supernatant are collected and the radioactivity is measured in a γ-counter.
The percentage of specific lysis is calculated by means of the formula: [(experimental ^51Cr release−spontaneous ^51Cr release)/(maximum ^51Cr release−spontaneous ^51Cr release)]×100. In all the experiments, the spontaneous release is less than 20% of the maximum release induced with 3N HCl.

Experiment [1] has as its system CD8+ cells from normal donors. Nature of the experiment: Induction of specific human CTLs in vitro from PBMCs of normal donors with p248V9, intracellular IFNγ production. The format is cell-based. Particulars: intracellular IFNγ production. As for the experimental part:
The ability of p248V9 to induce CTLs in vitro using peripheral blood mononuclear cells (PBMCs) from normal donors was tested as follows.
The PBMCs are obtained, from blood samples taken by leukocytapheresis on normal donors, after centrifugation at 2000 rpm for 20 min on a Ficoll/Hypaque (Amersham) gradient. After 3 washes in 0.9% NaCl, they are resuspended in complete medium (RPMI 1640 supplemented with 10% of heat-inactivated human AB serum, 40 μg/ml of gentamicin (Panpharma) and […] of L-glutamine (Gibco)), and incubated at 37° C. for 2 hours. After incubation, the non-adherent cells are removed. The adherent cells are differentiated into dendritic cells by culturing in a Teflon bag in a proportion of 3×10^6 cells/ml in complete medium supplemented with 500 IU/ml of GM-CSF (R & D Systems) and 500 IU/ml of IL-4 (R & D Systems). On the seventh day, maturing agents (100 ng/ml of polyI:C and 2 μg/ml of anti-CD40 antibody) are added to the culture. After 24 hours, the mature dendritic cells are loaded with the peptide p248V9 by incubation for 2 hours with 10 μM of peptide in the presence of 5 μg/ml of β2-microglobulin, and then irradiated at 3500 rads; they are then washed in order to remove the free peptide. CD8+ cells are isolated from the non-adherent cells by means of microbeads coupled to an anti-CD8 antibody (Miltenyi Biotec).
2×10^5 CD8+ cells are stimulated with 2×10^4 dendritic cells loaded with the peptide, in complete medium supplemented with 1000 IU/ml of IL-6 and 5 IU/ml of IL-12 in a final volume of 100 μl/well in a 96-well plate. From the seventh day, the cultures are stimulated in vitro each week with the dendritic cells loaded with the peptide, in the presence of 20 IU/ml of IL-2 and 10 ng/ml of IL-7. After the third restimulation, the CD8+ cells are collected and stimulated with EBV-transformed HLA-A*0201 allogenic B cells, in a 1/2 ratio, in the presence of 10 μM of peptide, for 16 hours.
The IFNγ-producing CD8+ cells are purified using a commercial kit (IFNγ secretion assay-cell enrichment and detection kit, Miltenyi Biotech). The cells thus purified are cultured for one week in complete medium supplemented with 20 IU/ml of IL-2 and 10 ng/ml of IL-7.
The response of these CD8+ cells to T2 cells loaded with one of the peptides p248V9, p248G9 or p248D9, or with a irrelevant peptide (HIVgag76), or to HLA-A*0201+MAGE-A+ tumor cells (M44 and M113) or HLA-A*0201+MAGE-A^− tumor cells (Caco-2), is evaluated by assaying the intracellular IFNγ production.
The CD8+ cells are incubated with the cells of the tumor line tested, in the presence of 20 μg/ml of Brefeldine-A (Sigma). […]
as §1

Where no end group is shown, it is not given here.

CLGLSYDGLL [p174]: the “affinity for HLA-A*0201 (in words)” value with HLA-A*0201 is given as “low affinity”.
For “TIWELMTFGG (listed as Homo sapiens) [HER4 911]”, the “CTL response (specific lysis) to RMAS-HHD cells loaded with the peptide” value (shortened to “CTL response (specific lysis)”) in the experiment with RMAS-HHD target cells is “induce a CTL response”. Further, in the experiment on RMAS-HHD cells, the “response of CD8+ cells of CTL line 1R5 to RMAS-HHD cells loaded with the peptide” value (shortened to “response of CD8+ cells of CTL line 1R5”) is reported as “response of the CD8+ cells of the CTL line 1R5”.
For “TVWELMTFGA (listed as Homo sapiens) [HER2,3 911]”, in that order: “induce a CTL response” and “response of the CD8+ cells of the CTL line 1R5”.
As for “TVWELMTFGS (listed as Homo sapiens) [HER1 911]”, the “CTL response (specific lysis)” value in the experiment with RMAS-HHD target cells is reported as “induce a CTL response”. Further, the “response of CD8+ cells of CTL line 1R5” value in the experiment on RMAS-HHD cells is “response of the CD8+ cells of the CTL line 1R5”.
On to “YICTIDVYMV (not fully specified) [p945Y1V9]”, for which the “RA (relative affinity for HLA-A*0201)” value with HLA-A*0201 is listed as greater than 100.
The same measure, in the same setting: the same measure for YLAARNVLV (not fully specified) [p845Y]: greater than 100.
With “YLEYRQVPD (listed as Homo sapiens) [p248D9]”, the “affinity for HLA-A*0201 (in words)” value with HLA-A*0201 was “low affinity”. Further, the “recognition of RMAS-HHD targets loaded with the native peptide by CTLs induced with the corresponding variant” value in the experiment on HHD transgenic mice is on record as “also against the two native peptides”. Moreover, the “response of p248V9-induced human CD8+ cells to T2 cells loaded with the peptide” value in experiment [1] is reported as “a response of the CD8+ cells”.
On the same counts, the results for “YLEYRQVPG (listed as Homo sapiens) [p248G9]” are “low affinity”, “also against the two native peptides” and “a response of the CD8+ cells”.
Turning to “YLFLWGPRA (not fully specified) [p262L2]”, the “CTL response generated by immunization with the variant peptide” value with HHD transgenic mice (HHD mice, 100 μg s.c. in Freund's incomplete adjuvant, RMAS-HHD targets, effector/target 40/1) is “induces CTLs capable of recognizing this peptide, but not the native p262 peptide”.
For the sequence YLLEKGERL (not fully specified) [p933Y], the “RA (relative affinity for HLA-A*0201)” value with HLA-A*0201 is recorded as greater than 100.
Regarding “YVKVLGSGV (not fully specified) [p722Y1V9]”, in the experiment with HLA-A*0201, the “RA (relative affinity for HLA-A*0201)” value is greater than 100.
In the case of “YVWELMTFGV (not fully specified) [p911Y1V9]”, in the experiment with RMAS-HHD target cells (CTL lines 1R5 and 2R5, targets loaded with 10 μM peptide), the “CTLs generated by the variant peptide, killing of loaded RMAS-HHD target cells” value is recorded as “generates CTLs which kill the RMAS-HHD target cells loaded with the variant peptide p911Y1V9, but also with the native peptides HER1 911, HER2,3 911 or HER4 911”. The “CTL response (specific lysis)” value in the experiment with RMAS-HHD target cells was “induce a CTL response”. Further, the “CTLs induced by the variant peptide, recognition by IFNγ production” value with RMAS-HHD cells (CTL line 1R5) was “induces CTLs capable of recognizing this variant peptide, but also the native peptides from which it is derived”. Also, the “response of CD8+ cells of CTL line 1R5” value in the experiment with RMAS-HHD cells is “response of the CD8+ cells of the CTL line 1R5”.
Consider YVWSYGVTV (not fully specified) [p904Y], for which, in the experiment with HLA-A*0201, the “RA (relative affinity for HLA-A*0201)” value is listed as greater than 100.
